Starred links: 1 amine or outer side, 2 acyl side, 3 side chain; linkers in the order of their positions; H or OH if unused. Positions of bridges follow the written chain, without caps; N, C: chain ends. Residues, ends and D or L forms follow the SMILES beside them. Groups on a side chain read outwards from the residue. *: point of attachment. C20 diacid = O=C(O)CCCCCCCCCCCCCCCCCCC(=O)*; C18 diacid = O=C(O)CCCCCCCCCCCCCCCCC(=O)*; γGlu = O=C(O)[C@H](CCC(=O)[*:2])N[*:1]; AEEA = NCCOCCOCC(=O)O
Experiment: Assay (III) ThT fibrillation assay for physical stability
Assay type: physicochemical
Source text: ASSAY (III)—ThT Fibrillation Assays for the Assessment of Physical Stability of Protein formulations Low physical stability of a polypeptide may lead to amyloid fibril formation, which is observed as well-ordered, thread-like macromolecular structures in the sample eventually resulting in gel formation. This has traditionally been measured by visual inspection of the sample. However, that kind of measurement is very subjective and depending on the observer. Therefore, the application of a small molecule indicator probe is much more advantageous. Thioflavin T (ThT) is such a probe and has a distinct fluorescence signature when binding to fibrils [Naiki et al. (1989) Anal. Biochem. 177, 244-249; LeVine (1999) Methods. Enzymol. […], 274-284]. The time course for fibril formation can be described by a sigmoidal curve with the following expression [Nielsen et al. (2001) Biochemistry 40, 6036-6046]: [formula] Here, F is the ThT fluorescence at the time t. The constant t0 is the time needed to reach 50% of maximum fluorescence. […] Few of those intermediates nucleate to form a template onto which further intermediates may assembly and the fibrillation proceeds. The lag-time corresponds to the interval in which the critical mass of nucleus is built up and the apparent rate constant is the rate with which the fibril itself is formed. Sample Preparation Samples were prepared freshly before each assay. Each sample composition is described in each example. The pH of the sample was adjusted to the desired value using appropriate amounts of concentrated NaOH and HClO4 or HCl. Thioflavin T was added to the samples from a stock solution in H2O to a final concentration of 1 μM. Sample aliquots of 200 μl were placed in a 96 well microtiter plate (Packard OptiPlate™-96, white polystyrene). Usually, four or eight replica of each sample (corresponding to one test condition) were placed in one column of wells. The plate was sealed with Scotch Pad (Qiagen). Incubation and Fluorescence Measurement Incubation at given temperature, shaking and measurement of the ThT fluorescence emission were done in a Fluoroskan Ascent FL fluorescence platereader or Varioskan platereader (Thermo Labsystems). The temperature was adjusted to 37° C. The orbital shaking was adjusted to 960 rpm with an amplitude of 1 mm in all the presented data. Fluorescence measurement was done using excitation through a 444 nm filter and measurement of emission through a 485 nm filter. Each run was initiated by incubating the plate at the assay temperature for 10 min. The plate was measured every 20 minutes for a desired period of time. Between each measurement, the plate was shaken and heated as described. Data Handling The measurement points were saved in Microsoft Excel format for further processing and curve drawing and fitting was performed using GraphPad Prism. The background emission from ThT in the absence of fibrils was negligible. The data points are typically a mean of four or eight samples and shown with standard deviation error bars. Only data obtained in the same experiment (i.e. samples on the same plate) are presented in the same graph ensuring a relative measure of fibrillation between experiments. The data set may be fitted to Eq. (1). However, since full sigmodial curves in this case are not always achieved during the measurement time, the degree of fibrillation is expressed as ThT fluorescence tabulated as the mean of the samples and shown with the standard deviation at various time points. Measurement of Initial and Final Concentrations The polypeptide concentration in each of the tested formulations were measured both before application in the ThT fibrillation assay (“Initial”) and after completion of the ThT fibrillation (“After ThT assay”). Concentrations were determined by reverse HPLC methods using a pramlintide standard as a reference. Before measurement after completion 150 μl was collected from each of the replica and transferred to an Eppendorf tube. […]

Row | ThT pH 4.0 lag time (h) (ThT fibrillation assay) | ThT pH 4.0 lag time (Table 8) [h] | ThT pH 4.0 lag time (Table 9) [h] | ThT pH 4.0 lag time (ThT fibrillation assay) [h] | Compound
1 | 9 | – | – | – | CC(C)C[C@H](NC(=O)[C@H](CCCNC(=N)N)NC(=O)[C@H](CCC(N)=O)NC(=O)[C@@H](NC(=O)[C@H](C)NC(=O)[C@@H]1CSSC[C@H](NC(=O)[C@@H](N)CCCCNC(=O)CC[C@H](NC(=O)CCCCCCCCCCCCCCCCCCC(=O)O)C(=O)O)C(=O)N[C@@H](CC(N)=O)C(=O)N[C@@H]([C@@H](C)O)C(=O)N[C@@H](C)C(=O)N[C@@H]([C@@H](C)O)C(=O)N1)[C@@H](C)O)C(=O)N[C@@H](C)C(=O)N[C@@H](CCC(=O)O)C(=O)N[C@@H](Cc1ccccc1)C(=O)N[C@@H](CC(C)C)C(=O)N[C@@H](Cc1c[nH]cn1)C(=O)N[C@@H](Cc1c[nH]cn1)C(=O)N[C@@H](CO)C(=O)N[C@@H](CO)C(=O)N[C@@H](CCC(N)=O)C(=O)N[C@@H](CC(N)=O)C(=O)N[C@@H](Cc1ccccc1)C(=O)NCC(=O)N[C@@H](C)C(=O)N1CCC[C@H]1C(=O)N[C@@H](CC(C)C)C(=O)N[C@@H](CO)C(=O)N[C@@H](CO)C(=O)N[C@H](C(=O)N[C@@H](CC(N)=O)C(=O)N[C@H](C(=O)NCC(=O)N[C@@H](CO)C(=O)N[C@@H](CC(N)=O)C(=O)N[C@H](C(=O)N1CCC[C@H]1C(N)=O)[C@@H](C)O)C(C)C)[C@@H](C)O [Example 151, N-epsilon1-[(S)-4-Carboxy-4-(19-carboxynonadecanoylamino)butyryl]-[Glu14,His17,Gln21,Ala25,Pro26,Ser28,Ser29,Pro37]-pramlintide] (H-K([γGlu-C20 diacid])CNTATCATQRLAEFLHHSSQNFGAPLSSTNVGSNTP-NH2; disulfide 2-7 (inferred))
2 | 14 | – | – | – | CC(C)C[C@H](NC(=O)[C@H](CCCNC(=N)N)NC(=O)[C@H](CCC(N)=O)NC(=O)[C@@H](NC(=O)[C@H](C)NC(=O)[C@@H]1CSSC[C@H](NC(=O)[C@H](Cc2c[nH]cn2)NC(=O)CC[C@H](NC(=O)CCCCCCCCCCCCCCCCCCC(=O)O)C(=O)O)C(=O)N[C@@H](CC(N)=O)C(=O)N[C@@H]([C@@H](C)O)C(=O)N[C@@H](C)C(=O)N[C@@H]([C@@H](C)O)C(=O)N1)[C@@H](C)O)C(=O)N[C@@H](C)C(=O)N[C@@H](CCC(=O)O)C(=O)N[C@@H](Cc1ccccc1)C(=O)N[C@@H](CC(C)C)C(=O)N[C@@H](Cc1c[nH]cn1)C(=O)N[C@@H](CCCNC(=N)N)C(=O)N[C@@H](CO)C(=O)N[C@@H](CO)C(=O)N[C@@H](CC(N)=O)C(=O)N[C@@H](CC(N)=O)C(=O)N[C@@H](Cc1ccccc1)C(=O)NCC(=O)N[C@@H](C)C(=O)N1CCC[C@H]1C(=O)N[C@@H](CC(C)C)C(=O)N[C@@H](CO)C(=O)N[C@@H](CO)C(=O)N[C@H](C(=O)N[C@@H](CC(N)=O)C(=O)N[C@H](C(=O)NCC(=O)N[C@@H](CO)C(=O)N[C@@H](CC(N)=O)C(=O)N[C@H](C(=O)N[C@@H](Cc1ccc(O)cc1)C(N)=O)[C@@H](C)O)C(C)C)[C@@H](C)O [Example 6, N-alpha-[(S)-4-Carboxy-4-(19-carboxynonadecanoylamino)butyryl]-[His1,Glu14,His17,Arg18,Ala25,Pro26,Ser28,Ser29]-pramlintide] ({C20 diacid-γGlu}-HCNTATCATQRLAEFLHRSSNNFGAPLSSTNVGSNTY-NH2; disulfide 2-7 (inferred))
3 | 10 | – | – | – | CC[C@H](C)[C@H](NC(=O)[C@H](CCCCNC(=O)COCCOCCNC(=O)COCCOCCNC(=O)CC[C@H](NC(=O)CCCCCCCCCCCCCCCCC(=O)O)C(=O)O)NC(=O)CNC(=O)[C@H](Cc1ccccc1)NC(=O)[C@H](CC(N)=O)NC(=O)[C@H](CC(N)=O)NC(=O)[C@H](CO)NC(=O)[C@H](CO)NC(=O)[C@H](Cc1c[nH]cn1)NC(=O)[C@@H](NC(=O)[C@H](CC(C)C)NC(=O)[C@H](Cc1ccccc1)NC(=O)[C@H](CCC(=O)O)NC(=O)[C@H](C)NC(=O)[C@H](CC(C)C)NC(=O)[C@H](CCCNC(=N)N)NC(=O)[C@H](CCC(N)=O)NC(=O)[C@@H](NC(=O)[C@H](C)NC(=O)[C@@H]1CSSC[C@H](NC(=O)[C@@H](N)CCCCN)C(=O)N[C@@H](CC(N)=O)C(=O)N[C@@H]([C@@H](C)O)C(=O)N[C@@H](C)C(=O)N[C@@H]([C@@H](C)O)C(=O)N1)[C@@H](C)O)C(C)C)C(=O)N[C@@H](CC(C)C)C(=O)N1CCC[C@H]1C(=O)N1CCC[C@H]1C(=O)N[C@H](C(=O)N[C@@H](CC(N)=O)C(=O)N[C@H](C(=O)NCC(=O)N[C@@H](CO)C(=O)N[C@@H](CC(N)=O)C(=O)N[C@H](C(=O)N[C@@H](Cc1ccc(O)cc1)C(N)=O)[C@@H](C)O)C(C)C)[C@@H](C)O [Example 126, N-epsilon25-[2-(2-{2-[2-(2-{2-[(S)-4-Carboxy-4-(17-carboxyheptadecanoylamino)butyrylamino]ethoxy}ethoxy)acetylamino]ethoxy}ethoxy)acetyl]-[Glu14,Lys25]-pramlintide] (H-KCNTATCATQRLAEFLVHSSNNFGK([AEEA-AEEA-γGlu-C18 diacid])ILPPTNVGSNTY-NH2; disulfide 2-7 (inferred))
4 | >45 | >45 | >45 | >45 | CC[C@H](C)[C@H](NC(=O)[C@@H]1CCCN1C(=O)CNC(=O)[C@H](Cc1ccccc1)NC(=O)[C@H](CC(N)=O)NC(=O)[C@H](CCCCNC(=O)COCCOCCNC(=O)COCCOCCNC(=O)CC[C@H](NC(=O)CCCCCCCCCCCCCCCCC(=O)O)C(=O)O)NC(=O)[C@H](CO)NC(=O)[C@H](CO)NC(=O)[C@H](Cc1c[nH]cn1)NC(=O)[C@H](Cc1c[nH]cn1)NC(=O)[C@H](CC(C)C)NC(=O)[C@H](Cc1ccccc1)NC(=O)[C@H](CCC(=O)O)NC(=O)[C@H](C)NC(=O)[C@H](CC(C)C)NC(=O)[C@H](CCCNC(=N)N)NC(=O)[C@H](CCC(N)=O)NC(=O)[C@@H](NC(=O)[C@H](C)NC(=O)[C@@H]1CSSC[C@H](NC(=O)[C@@H](N)CCCCN)C(=O)N[C@@H](CC(N)=O)C(=O)N[C@@H]([C@@H](C)O)C(=O)N[C@@H](C)C(=O)N[C@@H]([C@@H](C)O)C(=O)N1)[C@@H](C)O)C(=O)N[C@@H](CC(C)C)C(=O)N1CCC[C@H]1C(=O)N1CCC[C@H]1C(=O)N[C@H](C(=O)N[C@@H](CC(N)=O)C(=O)N[C@H](C(=O)NCC(=O)N[C@@H](CO)C(=O)N[C@@H](CCC(=O)O)C(=O)N[C@H](C(=O)N[C@@H](Cc1ccc(O)cc1)C(N)=O)[C@@H](C)O)C(C)C)[C@@H](C)O [Example 74, N-epsilon21-[2-(2-{2-[2-(2-{2-[(S)-4-Carboxy-4-(17-carboxyheptadecanoylamino)butyrylamino]ethoxy}ethoxy)acetylamino]ethoxy}ethoxy)acetyl]-[Glu14,His17,Lys21,Glu35]-pramlintide] (H-KCNTATCATQRLAEFLHHSSK([AEEA-AEEA-γGlu-C18 diacid])NFGPILPPTNVGSETY-NH2; disulfide 2-7 (inferred))
